Assay results from PubChem BioAssay AID256 (DTP/NCI, 2004).
“And” between values parts separate entries of the source, which are not always exact repeats. Equal values may be shown once. Inconclusive results and toxic doses are left out. Rule for the calls: active = survival T/C of 150% or more; inactive = T/C below 125% in these data.

System: CD2F1 mice, L1210 leukemia ip, survival T/C
Test: NCI In Vivo Anticancer Drug Screen. Data for tumor model L1210 Leukemia (intraperitoneal) in CD2F1 (CDF1) mice
Conditions: higher = longer survival
Summary of the method: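 Compound-dosed mice with transplantable tumor versus matched vehicle controls; endpoint ratio T/C reported.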

[1] = endpoint: mean survival time, dose: 100.0 mg/kg/injection, schedule: Q01DX009 (ip), vehicle: saline
[2] = endpoint: mean survival time, dose: 200.0 mg/kg/injection, schedule: Q01DX009 (ip), vehicle: saline
[3] = endpoint: mean survival time, dose: 400.0 mg/kg/injection, schedule: Q01DX009 (ip), vehicle: saline
[4] = endpoint: mean survival time, dose: 25.0 mg/kg/injection, schedule: Q01DX009 (ip), vehicle: saline
[5] = endpoint: mean survival time, dose: 100.0 mg/kg/injection, schedule: Q01DX009 (ip), vehicle: saline with Tween-80
[6] = endpoint: mean survival time, dose: 100.0 mg/kg/injection, schedule: Q04DX003 (ip), vehicle: saline with Tween-80
[7] = endpoint: mean survival time, dose: 200.0 mg/kg/injection, schedule: Q01DX009 (ip), vehicle: saline with Tween-80
[8] = endpoint: mean survival time, dose: 200.0 mg/kg/injection, schedule: Q04DX003 (ip), vehicle: saline with Tween-80
[9] = endpoint: mean survival time, dose: 400.0 mg/kg/injection, schedule: Q01DX009 (ip), vehicle: saline with Tween-80
[10] = endpoint: mean survival time, dose: 400.0 mg/kg/injection, schedule: Q04DX003 (ip), vehicle: saline with Tween-80
[11] = endpoint: mean survival time, dose: 50.0 mg/kg/injection, schedule: Q01DX009 (ip), vehicle: saline with Tween-80
[12] = endpoint: mean survival time, dose: 75.0 mg/kg/injection, schedule: Q01DX001 (ip), vehicle: other
[13] = endpoint: mean survival time, dose: 150.0 mg/kg/injection, schedule: Q01DX001 (ip), vehicle: other
[14] = endpoint: mean survival time, dose: 300.0 mg/kg/injection, schedule: Q01DX001 (ip), vehicle: other
[15] = endpoint: mean survival time, dose: 50.0 mg/kg/injection, schedule: Q01DX009 (ip), vehicle: saline

Measured: T/C

NC(=O)Oc1cccc(OC(N)=O)c1
inactive: endpoint: mean survival time, dose: 25.0 mg/kg/injection, schedule: Q01DX009 (ip), vehicle: water 95 % of control | endpoint: mean survival time, dose: 50.0 mg/kg/injection, schedule: Q01DX009 (ip), vehicle: water 106 % of control | endpoint: mean survival time, dose: 100.0 mg/kg/injection, schedule: Q01DX009 (ip), vehicle: water 106 % of control | endpoint: mean survival time, dose: 200.0 mg/kg/injection, schedule: Q01DX009 (ip), vehicle: water 104 % of control | endpoint: mean survival time, dose: 400.0 mg/kg/injection, schedule: Q01DX009 (ip), vehicle: water 106 % of control

CN(C(N)=O)C1CCCC1
inactive: [1] 102 % of control | [2] 105 % of control | [3] 107 % of control

COC(=O)C1(c2ccccn2)CCN(C)CC1
inactive: [1] 102 % of control | [2] 98 % of control | [3] 101 % of control

CCOC(=O)NC(C)(C)CN(C(=O)OCC)C(C)C
inactive: endpoint: mean survival time, dose: 100.0 mg/kg/injection, schedule: Q01DX009 (ip), vehicle: other 102 % of control | endpoint: mean survival time, dose: 200.0 mg/kg/injection, schedule: Q01DX009 (ip), vehicle: other 104 % of control

Nc1nc(=O)c2[nH]cnc2n1O
inactive: endpoint: mean survival time, dose: 12.5 mg/kg/injection, schedule: Q04DX003 (ip), vehicle: acetone 97 % of control | endpoint: mean survival time, dose: 16.5 mg/kg/injection, schedule: Q01DX009 (ip), vehicle: saline 102 % of control | [4] 102 % of control | endpoint: mean survival time, dose: 25.0 mg/kg/injection, schedule: Q04DX003 (ip), vehicle: acetone 94 % of control | endpoint: mean survival time, dose: 50.0 mg/kg/injection, schedule: Q04DX003 (ip), vehicle: acetone 97 % of control | endpoint: mean survival time, dose: 55.0 mg/kg/injection, schedule: Q01DX009 (ip), vehicle: saline 118 % of control

COC(=O)C1C2OC3C(OC(=O)C31)C2Br (stereo not drawn)
inactive: [5] 91 % of control | [6] 86 % of control | [7] 91 % of control | [8] 94 % of control | [9] 95 % of control | [10] 91 % of control

CC(=O)CC1CC2(CCC1=O)OCCO2 (stereo not drawn)
inactive: [5] 102 % of control | [6] 98 % of control | [7] 96 % of control | [8] 93 % of control | [9] 100 % of control | [10] 102 % of control

CN(C)C(=S)Nc1ccccc1
inactive: [5] 95 % of control | [6] 93 % of control | [7] 95 % of control | [8] 90 % of control | [10] 88 % of control

N#Cc1cccc[n+]1Cc1ccc([N+](=O)[O-])cc1
inactive: endpoint: mean survival time, dose: 25.0 mg/kg/injection, schedule: Q01DX009 (ip), vehicle: saline with Tween-80 108 % of control | [11] 101 % of control

COc1cccc(C(=O)O)c1OC
inactive: [5] 109 % of control | [7] 94 % of control | [9] 102 % of control

CN=C(N)c1ccc(N=C(N)c2ccc(C(N)=Nc3ccc(C(N)=NC)cc3)cc2)cc1
inactive: endpoint: median survival time, dose: 3.75 mg/kg/injection, schedule: Q08HX018 (ip), vehicle: water 117 % of control | endpoint: median survival time, dose: 10.0 mg/kg/injection, schedule: Q01DX001 (iv), vehicle: saline 95 % of control | endpoint: median survival time, dose: 10.0 micrograms per hour, schedule: Q#X X001 (iv), vehicle: saline 97 % of control

CCCCCCCCCCC(=O)CCCC
inactive: [6] 98 % of control | [8] 94 % of control | [10] 100 % of control

CC(=O)ON=C1C=CC(=C(C#N)c2ccccc2)C=C1
inactive: endpoint: mean survival time, dose: 50.0 mg/kg/injection, schedule: Q01DX001 (ip), vehicle: saline 96 % of control | [11] 97 % of control and 101 % of control | endpoint: mean survival time, dose: 100.0 mg/kg/injection, schedule: Q01DX001 (ip), vehicle: saline 98 % of control | [5] 98 % of control and 100 % of control | [6] 91 % of control | endpoint: mean survival time, dose: 200.0 mg/kg/injection, schedule: Q01DX001 (ip), vehicle: saline 95 % of control | [7] 93 % of control and 101 % of control | [8] 95 % of control | endpoint: mean survival time, dose: 400.0 mg/kg/injection, schedule: Q01DX001 (ip), vehicle: saline 90 % of control | [10] 105 % of control

COc1ccc(C(OCC2OC(n3ccc(NC(=O)c4ccccc4)nc3=O)C(O)C2O)(c2ccccc2)c2ccccc2)cc1 (stereo not drawn)
inactive: endpoint: median survival time, dose: 12.5 mg/kg/injection, schedule: Q01DX005 (ip), vehicle: saline with Tween-80 100 % of control | endpoint: median survival time, dose: 25.0 mg/kg/injection, schedule: Q01DX005 (ip), vehicle: saline with Tween-80 104 % of control | endpoint: median survival time, dose: 50.0 mg/kg/injection, schedule: Q01DX005 (ip), vehicle: saline with Tween-80 104 % of control | endpoint: median survival time, dose: 100.0 mg/kg/injection, schedule: Q01DX005 (ip), vehicle: saline with Tween-80 98 % of control | endpoint: median survival time, dose: 200.0 mg/kg/injection, schedule: Q01DX005 (ip), vehicle: saline with Tween-80 95 % of control

c1ccc(C2=C(c3ccccc3)C(c3ccccc3)(c3ccccc3)c3ccccc32)cc1
inactive: [6] 101 % of control | [8] 98 % of control | [10] 98 % of control

O=[N+]([O-])c1ccc(Oc2c(Cl)cc(Cl)c(Cl)c2Cl)c([N+](=O)[O-])c1
inactive: [12] 100 % of control | [13] 102 % of control | [14] 94 % of control

CC(C)OC(=O)Nc1ccc(F)c(F)c1
inactive: [5] 95 % of control | [7] 98 % of control | [9] 114 % of control

NC(=S)N/N=C/c1cccnc1
inactive: [15] 109 % of control | [1] 101 % of control | [2] 106 % of control

COc1ncnc2c1c(C#N)cn2C1OC(CO)C(O)C1O (stereo not drawn)
inactive: endpoint: mean survival time, dose: 6.25 mg/kg/injection, schedule: Q01DX009 (ip), vehicle: saline 117 % of control | [4] 109 % of control | [15] 124 % of control | [1] 91 % of control

COc1ccc2c(c1)N(CCC1CCCCN1C)c1ccccc1S2 (stereo not drawn)
inactive: endpoint: mean survival time, dose: 6.25 mg/kg/injection, schedule: Q04DX003 (ip), vehicle: saline 93 % of control and 100 % of control | endpoint: mean survival time, dose: 12.5 mg/kg/injection, schedule: Q04DX003 (ip), vehicle: Klucel (hydroxypropylcellulose) (HPC) 97 % of control | endpoint: mean survival time, dose: 12.5 mg/kg/injection, schedule: Q04DX003 (ip), vehicle: saline 98 % of control and 100 % of control | endpoint: mean survival time, dose: 25.0 mg/kg/injection, schedule: Q04DX003 (ip), vehicle: Klucel (hydroxypropylcellulose) (HPC) 95 % of control | endpoint: mean survival time, dose: 25.0 mg/kg/injection, schedule: Q04DX003 (ip), vehicle: saline 101 % of control and 102 % of control | endpoint: mean survival time, dose: 50.0 mg/kg/injection, schedule: Q04DX003 (ip), vehicle: Klucel (hydroxypropylcellulose) (HPC) 97 % of control | endpoint: mean survival time, dose: 50.0 mg/kg/injection, schedule: Q04DX003 (ip), vehicle: saline 106 % of control | endpoint: mean survival time, dose: 100.0 mg/kg/injection, schedule: Q04DX003 (ip), vehicle: Klucel (hydroxypropylcellulose) (HPC) 103 % of control

CC(=O)Nc1ccc(/C=C/[N+](=O)[O-])cc1
inactive: [12] 105 % of control | [13] 108 % of control | [14] 114 % of control

CCCCCCCCCCCCCCCCCC[N+](C)(C)C (tested in a mixture with another compound)
inactive: endpoint: mean survival time, dose: 1.5 mg/kg/injection, schedule: Q01DX009 (ip), vehicle: saline with Tween-80 100 % of control | endpoint: mean survival time, dose: 3.0 mg/kg/injection, schedule: Q01DX009 (ip), vehicle: saline with Tween-80 94 % of control | endpoint: mean survival time, dose: 6.0 mg/kg/injection, schedule: Q01DX009 (ip), vehicle: saline with Tween-80 94 % of control

CC(=O)Nc1c[n+]([O-])cc2ccccc12
inactive: [5] 105 % of control | [6] 94 % of control | [7] 98 % of control | [8] 96 % of control | [9] 100 % of control | [10] 94 % of control
